Results published in paper PMC6944458, “Intracellular and in vivo evaluation of imidazo[2,1-b]thiazole-5-carboxamide anti-tuberculosis compounds” (PLoS ONE, 2020).
In brackets after ≈: the same amount, converted by molar mass. Several values for one entry are separate records, joined by “and”; a condition that tells them apart may be missing. Equal entries are not always repeated. Where two headings read alike, the source gives them in different places.

Legend:
H37Rv-Mtb = test: MIC against replicating H37Rv-Mtb in liquid media; type: cell-based, Mycobacterium tuberculosis; conditions: for MIC: replicating, 5 days, OD590
[1] = tested on: M. tuberculosis strain H37Rv-LUX; test: microbe, parasite or virus in culture; type: cell-based; conditions: Mycobacterium tuberculosis, read-out: LORA MIC
VERO cell line = test: Eukaryotic cytotoxicity (CellTiter-Glo); type: cell-based, African green monkey; conditions: Chlorocebus sabaeus, 48 h, 2-day incubation, read-out: VERO Toxicity IC50
Protocol: Cytotoxicity was tested against the African green monkey adult kidney cell line (VERO, ATCC CRL-1586) as described. Compounds were tested as 10-point, 3-fold serial dilutions in DMSO (final assay concentration of 1% DMSO) and viability was measured using CellTiter-Glo (Promega). Inhibition curves were fitted using the Levenberg–Marquardt algorithm. IC50 was defined as the concentration required to reduce cell viability by 50% after 2-day incubation.

[2] = tested on: M. tuberculosis GC1237 (Mtb-GFP) in Raw 264.7 macrophages; test: Intracellular mycobacterial replication assay in macrophages; type: cell-based; conditions: Mycobacterium tuberculosis, 120 h, 5 days, read-out: MIC, intracellular M. tuberculosis growth in macrophages
physchem = conditions: pH 6.8, aqueous buffer, kinetic from dmso stock
Protocol: The relative solubility of compounds was determined in microbiological medium using turbidity as a measure [27]. A serial dilution of compounds was prepared in DMSO and then transferred to microbiological medium at pH 6.8.

[3] = tested on: murine Raw 264.7 macrophages; conditions: mouse
M. tuberculosis Erdman = test: Chronic Balb/c model of TB infection; type: in vivo, Balb/c mice; conditions: 25 mg/kg
replicating Mtb = conditions: against three family strains; cited from earlier work
[4] = cited from earlier work
[5] = cited from earlier work; remark: listed apart in the source
[6] = tested on: M. tuberculosis GC1237 (Mtb-GFP) in Raw 264.7 macrophages; conditions: cited from earlier work
[7] = Mycobacterium tuberculosis, H37RV, 120 h

Row | SMILES | MIC (H37Rv-Mtb; [7]) [µM] | MIC [1] [µM] | IC50 (VERO cell line) [µM] | MIC [2] [µM] | solubility (physchem) [µM] | also measured
1 | CCc1nc2sc(C)cn2c1C(=O)NCc1ccc2c(c1)CCO2 [ND-11503, N-((2,3-Dihydrobenzofuran-5-yl)methyl)-6-ethyl-2-methylimidazo[2,1-b]thiazole-5-carboxamide] | 0.25 to 0.54 (≈ 0.0854 to 0.184 µg/mL) | 2.7 (≈ 0.922 µg/mL) | > 50 | 1.25 to 2.5 (≈ 0.427 to 0.854 µg/mL) | ≥ 200 | MIC (H37Rv-Mtb): 0.25 µM (≈ 0.0854 µg/mL)
2 | Cc1cn2c(C(=O)NCc3ccc4c(c3)CCO4)c(C)nc2s1 [ND-11459, N-((2,3-Dihydrobenzofuran-5-yl)methyl)-2,6-dimethylimidazo[2,1-b]thiazole-5-carboxamide] |  | 12.4 (≈ 4.06 µg/mL) | > 50 | 1.25 to 2.5 (≈ 0.409 to 0.819 µg/mL) | ≥ 200 | Macrophage toxicity concentration relative to MIC [3]: 4 and 8-fold higher than their MIC
3 | NNC(=O)c1ccncc1 [INH, Isoniazid] |  |  |  |  |  | Log reduction vs Control (Lung) (M. tuberculosis Erdman; 4 weeks): 1.73 log10 CFU; Log reduction vs Control (Spleen) (M. tuberculosis Erdman; 4 weeks): 2.87 log10 CFU; Lung Log10 CFU ±SEM (M. tuberculosis Erdman; ERDMAN, 672 h): 4.06 ± 0.11 Log10 CFU; Spleen Log10 CFU ±SEM (M. tuberculosis Erdman; ERDMAN, 672 h): 2.13 ± 0.12 Log10 CFU
4 | Cc1cn2c(C(=O)NCc3ccc(N4CCS(=O)(=O)CC4)c(F)c3)c(C)nc2s1 [ND-11903, N-(4-(1,1-Dioxidothiomorpholino)-3-fluorobenzyl)-2,6-dimethylimidazo[2,1-b]thiazole-5-carboxamide] | 3.7 (≈ 1.62 µg/mL) | 200 (≈ 87.3 µg/mL) | > 50 |  | > 200 | Fold less active than the most potent lipophilic compounds (ND-11543, ND-11564) (H37Rv-Mtb; MIC H37Rv-Mtb comparison): > 100 fold
5 | CCc1nc2sc(C)cn2c1C(=O)NCc1ccc(Oc2cccc(C(F)(F)F)c2)nc1 [ND-12024, 6-Ethyl-2-methyl-N-((6-(3-(trifluoromethyl)phenoxy)yridine-3-yl)methyl)imidazo[2,1-b]thiazole-5-carboxamide] | 0.21 (≈ 0.0967 µg/mL) |  | > 50 |  | 50 (≈ 23 µg/mL) | 
6 | Cc1cn2c(C(=O)Nc3ccc(Oc4cccc(C(F)(F)F)c4)cc3)c(C)nc2s1 [ND-11566, 2,6-Dimethyl-N-(4-(3-(trifluoromethyl)phenoxy)phenyl)imidazo[2,1-b]thiazole-5-carboxamide] | 9.1 (≈ 3.93 µg/mL) | > 100 | > 50 |  | 50 (≈ 21.6 µg/mL) | Fold difference in potency, anilide vs benzylic amide ND-11564 (H37Rv-Mtb; MIC H37Rv-Mtb comparison): > 50 fold; MIC (H37Rv-Mtb): 9.10 µM (≈ 3.93 µg/mL)
7 | Cc1c(OCC(F)(F)F)ccnc1CSc1nc2ccccc2[nH]1 [LPZS] |  |  |  |  |  | IC90 (replicating Mtb): 1.1 to 1.7 µM
8 | NC(=O)c1sc(N2CCOCC2)cc1OCCc1ccc(OC(F)(F)F)cc1 [Compound 6] |  |  |  |  |  | MIC [4]: 0.2 µM (≈ 0.0833 µg/mL)
9 | O=C(/C=C/c1cccs1)N1CCN(Cc2ccc3c(c2)OCO3)CC1 [AX-35] |  |  |  |  |  | MIC [5]: 0.14 μM and 0.05 μg/mL
10 | C[C@H]1COC2(CCN(c3nc(=O)c4cc(C(F)(F)F)cc([N+](=O)[O-])c4s3)CC2)O1 [BTZ043, reference compound] | 0.002 (≈ 0.000863 µg/mL) |  | > 50 | 0.0078 (≈ 0.00336 µg/mL) |  | MIC, intracellular, previous reports [6]: < 0.098 µM
11 | Cc1cn2c(C(=O)NCc3ccc(Oc4cccc(C(F)(F)F)c4)nc3)c(C)nc2s1 [ND-12025, 2,6-Dimethyl-N-((6-(3-(trifluoromethyl)phenoxy)yridine-3-yl)methyl)imidazo[2,1-b]thiazole-5-carboxamide] | 0.33 (≈ 0.147 µg/mL) |  | > 50 |  | 100 (≈ 44.6 µg/mL) | 
12 | Cc1cn2c(C(=O)NCc3ccc(Oc4cccc(C(F)(F)F)c4)cc3)c(C)nc2s1 [ND-11564, 2,6-Dimethyl-N-(4-(3-(trifluoromethyl)phenoxy)benzyl)imidazo[2,1-b]thiazole-5-carboxamide] | 0.16 (≈ 0.0713 µg/mL) | 9.68 (≈ 4.31 µg/mL) | > 50 | 0.25 (≈ 0.111 µg/mL) | 100 (≈ 44.5 µg/mL) | MIC (H37Rv-Mtb): 0.16 µM (≈ 0.0713 µg/mL); Macrophage toxicity concentration relative to MIC [3]: 4 and 8-fold higher than their MIC
13 | Cc1cn2c(C(=O)NCc3ccc(N4CCS(=O)(=O)CC4)cc3)c(C)nc2s1 [ND-12015, N-(4-(1,1-Dioxidothiomorpholino)benzyl)-2,6-dimethylimidazo[2,1-b]thiazole-5-carboxamide] | 13 (≈ 5.44 µg/mL) |  | > 50 |  | 200 (≈ 83.7 µg/mL) | Fold less active than the most potent lipophilic compounds (ND-11543, ND-11564) (H37Rv-Mtb; MIC H37Rv-Mtb comparison): > 100 fold
